Our source for the IC50 values is patent publication US9321756B2, “Azole compounds as PIM inhibitors” (priority 2011, dated 2016).

Assay [1] concerns Pim-1 stably transfected U2OS human osteogenic sarcoma line. Put plainly: Pim cell assay U2OS (phospho-BAD normalized against total BAD), Pim-1 transfected. The class given is cell-based. The note with it: Homo sapiens, U2OS.
Assay [2] has as its system Pim-2 stably transfected U2OS human osteogenic sarcoma line. Put plainly: Pim cell assay U2OS (phospho-BAD normalized against total BAD), Pim-2 transfected. Format: cell-based. The note with it: Homo sapiens, read-out: U2OS Pim2_Cell_IC50.
Assay [3] has as its target full length recombinant Pim-2 (Homo sapiens (Human), UniProt Q9P1W9). Put plainly: Pim enzyme assay (HTRF, phosphorylation of biotinylated-BAD (S112) peptide), Pim-2. Format: biochemical. The following applies: read-out: Pim2_IC50.
Assay [4] deals with full length recombinant Pim-1 (Homo sapiens (Human), UniProt P11309). Put plainly: Pim enzyme assay (HTRF, phosphorylation of biotinylated-BAD (S112) peptide), Pim-1. The class given is biochemical. Background: Time-resolved FRET reads energy transfer from a long-lived donor to a nearby acceptor.
full length recombinant Pim-1, sequence (P11309 whole entry): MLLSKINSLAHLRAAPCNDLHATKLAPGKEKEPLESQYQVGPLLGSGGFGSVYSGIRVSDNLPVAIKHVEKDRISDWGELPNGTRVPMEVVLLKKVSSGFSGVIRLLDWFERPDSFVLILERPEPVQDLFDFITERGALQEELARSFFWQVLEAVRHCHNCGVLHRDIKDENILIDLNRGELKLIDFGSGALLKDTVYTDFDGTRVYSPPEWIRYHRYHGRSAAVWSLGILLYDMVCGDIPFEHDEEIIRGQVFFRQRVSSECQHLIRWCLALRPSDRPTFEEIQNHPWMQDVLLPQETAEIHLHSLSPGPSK
For assay [5], the target named is full length recombinant Pim-3 (Homo sapiens (Human), UniProt Q86V86). Description: Pim enzyme assay (HTRF, phosphorylation of biotinylated-BAD (S112) peptide), Pim-3. The class given is biochemical. The following applies: Pim-3 enzyme assay; read-out: Pim3 IC50. The essentials: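 IC50 values were fitted with a 4-parameter logistic model to percent-of-control HTRF signal (Eu anti-phospho-BAD S112 antibody/streptavidin-APC). Reactions used full-length Pim-3 and biotin-BAD (S112) peptide, ran 1 h 30 min at RT (22 °C) in Hepes pH 7.0 buffer with BSA and DTT, and were stopped by 3 mM EDTA.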

Assay [6] concerns KMS-12-BM myeloma cells. Description: Pim cell assay KMS12 (phospho-BAD and total BAD). The following applies: Homo sapiens, 2 h, read-out: KMS12_IC50. Format: cell-based. The protocol: The assay for determination of the antiproliferative activity of multiple Pim inhibitors in the KMS-12-BM myeloma cells measures levels of phospho-BAD and total BAD. It was conducted as follows: […] The cells were then incubated overnight at 37° C., 5% CO2. […] This dilution in DMSO was then diluted again into cell growth medium. […] The cell plates were then incubated with compound for 2 hours at 37° C., 5% CO2. After a two h incubation, the compound-containing medium was removed. […] The cell plates containing lysis buffer were then immediately stored at -70° C. These prepared lysates were then assayed for phospho and total BAD according to the manufacturer's protocols (Meso Scale Diagnostics, Cat#[…]-3 & #[…]-3). The plates were read on the MSD Sector Imager 6000, and results were calculated according to the assay protocols ((% Phosphoprotein=((2×Phospho signal)/(Phospho signal+Total signal))×100)).

The mark [7] stands for this setting: Pim-1 enzyme assay, read-out: Pim_1_IC50.
The mark [8] stands for this setting: read-out: U2OS Pim1_Cell_IC50, U2OS cells, Pim-1 transfected.
The mark [9] stands for this setting: HTRF, 10-point curve, high dose 1 uM, 45 min at RT.

Structures are written as SMILES. Like-named read-outs stand apart in the source and are kept apart here. Bounds are passed on as bounds.

full length recombinant Pim-2, sequence (Q9P1W9 whole entry): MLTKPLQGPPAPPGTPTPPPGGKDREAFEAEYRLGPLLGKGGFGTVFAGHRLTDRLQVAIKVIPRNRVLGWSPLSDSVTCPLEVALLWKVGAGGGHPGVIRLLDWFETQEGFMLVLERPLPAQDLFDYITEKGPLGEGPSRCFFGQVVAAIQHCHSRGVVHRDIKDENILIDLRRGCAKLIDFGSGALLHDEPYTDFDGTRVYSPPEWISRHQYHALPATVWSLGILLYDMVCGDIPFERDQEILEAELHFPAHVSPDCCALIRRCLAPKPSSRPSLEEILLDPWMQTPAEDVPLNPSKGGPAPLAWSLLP

Consider `Nc1nnc(-c2ccc3[nH]cc(-c4cncc(NCC5CC5)n4)c3c2)s1` [Example 207, 6-(5-(5-amino-1,3,4-thiadiazol-2-yl)-1H-indol-3-yl)-N-(cyclopropylmethyl)-2-pyrazinamine], for which the IC50 came to 37.4 nM in assay [1] (read-out: U2OS Pim1_Cell_IC50); 1090 nM in assay [2] (U2OS cells, Pim-2 transfected); 7.71 nM in assay [3] (Pim-2 enzyme assay); 1.77 nM in assay [4] (setting [7]); 1.68 nM in assay [5].
Consider `CC(Oc1cncc(-c2c[nH]c3ccc(-c4nnc(N)s4)cc23)n1)C(F)(F)F` (stereo not drawn) [Example 211, 5-(3-(6-(2,2,2-trifluoro-1-methylethoxy)-2-pyrazinyl)-1H-indol-5-yl)-1,3,4-thiadiazol-2-amine], for which the IC50 was determined as 192 nM in assay [1] (read-out: U2OS Pim1_Cell_IC50); 2800 nM in assay [2] (U2OS cells, Pim-2 transfected); 53.7 nM in assay [3] (Pim-2 enzyme assay); 24.5 nM in assay [4] (setting [7]); 13.2 nM in assay [5].
As to `COc1cncc(-c2c[nH]c3ccc(-c4nnc(N)s4)cc23)n1` [Example 212, 5-(3-(6-methoxy-2-pyrazinyl)-1H-indol-5-yl)-1,3,4-thiadiazol-2-amine], the IC50 in assay [1] (read-out: U2OS Pim1_Cell_IC50) was 177 nM; in assay [2] (U2OS cells, Pim-2 transfected) it was above 31600 nM; in assay [3] (Pim-2 enzyme assay), 30.2 nM; in assay [4] (setting [7]), 38.3 nM; in assay [5], 14.9 nM.
With `CNc1nnc(-c2ccc3[nH]cc(-c4cccc(N5CCOCC5)n4)c3c2)s1` [Example 214, N-methyl-5-(3-(6-(4-morpholinyl)-2-pyridinyl)-1H-indol-5-yl)-1,3,4-thiadiazol-2-amine], the IC50 in assay [1] (setting [8]) was 587 nM; in assay [2] (U2OS cells, Pim-2 transfected), 15200 nM; in assay [3] (Pim-2 enzyme assay) it was 91.9 nM; in assay [4] (setting [7]), 25.7 nM; in assay [5], 10.1 nM.
Take `CS(=O)(=O)c1nnc(-c2ccc3[nH]cc(-c4cccc(N5CCOCC5)n4)c3c2)s1` [Example 215, 5-(5-(methylsulfonyl)-1,3,4-thiadiazol-2-yl)-3-(6-(4-morpholinyl)-2-pyridinyl)-1H-indole]: the IC50 was above 31600 nM in assay [1] (read-out: U2OS Pim1_Cell_IC50); above 31600 nM in assay [2] (U2OS cells, Pim-2 transfected); 8780 nM in assay [3] (Pim-2 enzyme assay); 208 nM in assay [4] (setting [7]); 168 nM in assay [5].
Take `CNc1nnc(-c2ccc3[nH]cc(-c4ccc5c(c4)OC(C)(C)C5)c3c2)s1` [Example 216, 5-(3-(2,2-dimethyl-2,3-dihydro-1-benzofuran-6-yl)-1H-indol-5-yl)-N-methyl-1,3,4-thiadiazol-2-amine]: the IC50 is 1770 nM in assay [1] (read-out: U2OS Pim1_Cell_IC50); above 31600 nM in assay [2] (U2OS cells, Pim-2 transfected); 1840 nM in assay [3] (Pim-2 enzyme assay); 187 nM in assay [4] (setting [7]); 91.5 nM in assay [5].
For `CNc1nnc(-c2ccc3[nH]cc(-c4cncc(N5CCCCC5)n4)c3c2)s1` [Example 227, N-methyl-5-(3-(6-(1-piperidinyl)-2-pyrazinyl)-1H-indol-5-yl)-1,3,4-thiadiazol-2-amine], the IC50 in assay [1] (read-out: U2OS Pim1_Cell_IC50) came to 121 nM; in assay [2] (U2OS cells, Pim-2 transfected) it was 9950 nM; in assay [3] (Pim-2 enzyme assay), 41 nM; in assay [4] (setting [7]) it was 5.07 nM; in assay [5], 1.42 nM.
For `CNc1nnc(-c2ccc3[nH]cc(-c4cccc(-n5cnc(C)c5)n4)c3c2)s1` [Example 228, N-methyl-5-(3-(6-(4-methyl-1H-imidazol-1-yl)-2-pyridinyl)-1H-indol-5-yl)-1,3,4-thiadiazol-2-amine], in that order: above 31600 nM, above 31600 nM, 8.28 nM, 13.2 nM and 1.5 nM.
The like results for `CNc1nnc(-c2ccc3[nH]cc(-c4cccc(N5CCCC5=O)n4)c3c2)s1` [Example 229, 1-(6-(5-(5-(methylamino)-1,3,4-thiadiazol-2-yl)-1H-indol-3-yl)-2-pyridinyl)-2-pyrrolidinone] were, in that order, 312 nM, above 31600 nM, 80.4 nM, 28.8 nM and 6.73 nM.
For `CCOc1cccc(-c2c[nH]c3ccc(-c4nnc(NC)s4)cc23)n1` [Example 230, 5-(3-(6-ethoxy-2-pyridinyl)-1H-indol-5-yl)-N-methyl-1,3,4-thiadiazol-2-amine], in that order: 912 nM, above 31600 nM, 63.1 nM, 30.9 nM and 7.13 nM.
As to `CNc1nnc(-c2ccc3[nH]cc(-c4cncc(N(C)C)n4)c3c2)s1` [Example 231, N,N-dimethyl-6-(5-(5-(methylamino)-1,3,4-thiadiazol-2-yl)-1H-indol-3-yl)-2-pyrazinamine], the IC50 in assay [1] (read-out: U2OS Pim1_Cell_IC50) was 377 nM; in assay [2] (U2OS) it was above 31600 nM; in assay [3] (Pim-2 enzyme assay), 137 nM; in assay [4], 38.2 nM; in assay [5] it was 9.89 nM.
As for `CNc1nnc(-c2ccc3[nH]cc(-c4ccccc4F)c3c2)s1` [Example 235, 5-(3-(2-fluorophenyl)-1H-indol-5-yl)-N-methyl-1,3,4-thiadiazol-2-amine], the IC50 in assay [1] (read-out: U2OS Pim1_Cell_IC50) was 5390 nM; in assay [2] (U2OS cells, Pim-2 transfected), above 31600 nM; in assay [3] (Pim-2 enzyme assay), 782 nM; in assay [4] (setting [7]), 228 nM; in assay [5] it was 62.8 nM.
As for `CSc1nnc(-c2ccc3[nH]cc(-c4cccc(N5CCOCC5)n4)c3c2)s1` [Example 243, 5-(5-(methylsulfanyl)-1,3,4-thiadiazol-2-yl)-3-(6-(4-morpholinyl)-2-pyridinyl)-1H-indole], the IC50 in assay [1] (setting [8]) was 6330 nM; in assay [2] (U2OS cells, Pim-2 transfected), above 31600 nM; in assay [3] (Pim-2 enzyme assay), 2820 nM; in assay [4] (setting [7]) it was 223 nM; in assay [5], 85.2 nM.
For the compound `CC(C)Oc1cccc(-c2c[nH]c3ccc(-c4nnco4)cc23)n1` [Example 244, 3-(6-(1-methylethoxy)-2-pyridinyl)-5-(1,3,4-oxadiazol-2-yl)-1H-indole], the IC50 in assay [1] (read-out: U2OS Pim1_Cell_IC50) stood at 310 nM; in assay [2] (U2OS cells, Pim-2 transfected), 12200 nM; in assay [3] (Pim-2 enzyme assay), 85.4 nM; in assay [4] (setting [7]) it was 24.8 nM; in assay [5], 15.1 nM.
The like results for `c1cc2[nH]cc(-c3cncc(C4CC4)n3)c2cc1-c1nnc(N2CCNCC2)o1` [Example 246, 3-(6-cyclopropyl-2-pyrazinyl)-5-(5-(1-piperazinyl)-1,3,4-oxadiazol-2-yl)-1H-indole] were, in that order, 450 nM, above 31600 nM, 21.5 nM, 4.19 nM and 7.11 nM.
For `c1cc2[nH]cc(-c3cncc(C4CC4)n3)c2cc1-c1nnc(NC2CNC2)o1` [Example 247, N-3-azetidinyl-5-(3-(6-cyclopropyl-2-pyrazinyl)-1H-indol-5-yl)-1,3,4-oxadiazol-2-amine], in that order: 1940 nM, above 31600 nM, 1.05 nM, 1.34 nM and 0.346 nM.
The like results for `c1ccc(-c2nnc(-c3ccc4[nH]cc(-c5cncc(C6CC6)n5)c4c3)o2)cc1` [Example 254, 3-(6-cyclopropyl-2-pyrazinyl)-5-(5-phenyl-1,3,4-oxadiazol-2-yl)-1H-indole] were, in that order, above 15800 nM, 808 nM, above 1000 nM, 175 nM and 138 nM.
In the case of `CC(C)Nc1nnc(-c2ccc3[nH]cc(-c4nccc(C5CC5)n4)c3c2)o1` [Example 264, 5-(3-(4-cyclopropyl-2-pyrimidinyl)-1H-indol-5-yl)-N-(1-methylethyl)-1,3,4-oxadiazol-2-amine], the IC50 in assay [1] (read-out: U2OS Pim1_Cell_IC50) was 25.8 nM; in assay [2] (U2OS cells, Pim-2 transfected), 238 nM; in assay [3] (Pim-2 enzyme assay), 1.39 nM; in assay [4] (setting [7]), 1.4 nM; in assay [5] it was 0.435 nM.
For the compound `CC(C)Nc1nnc(-c2cc3c(-c4nccc(C5CC5)n4)c[nH]c3cc2F)o1` [Example 279, 5-(3-(4-cyclopropyl-2-pyrimidinyl)-6-fluoro-1H-indol-5-yl)-N-(1-methylethyl)-1,3,4-oxadiazol-2-amine], the IC50 in assay [6] turned out to be 746 nM; in assay [3] (setting [9]) it was 1.88 nM; in assay [4] (HTRF, 10-point curve, high dose 1 uM, 2 h at RT, read-out: Pim_1_IC50), 2.38 nM.
Take `CC(C)Nc1nnc(-c2cc3c(-c4cncc(C5CC5)n4)c[nH]c3cc2F)o1` [Example 280, 5-(3-(6-cyclopropyl-2-pyrazinyl)-6-fluoro-1H-indol-5-yl)-N-(1-methylethyl)-1,3,4-oxadiazol]: the figures for the IC50 in assay [6], in assay [3] (setting [9]) and in assay [4] were 3830 nM, 8.04 nM and 4.71 nM, respectively.
